{"source": "patent US6919306B2", "about": "“Method of skin care” (Yaizu Suisankagaku Industry Co. Ltd., priority 1999, dated 2005)", "key": {"[1]": {"experiment": "Solubility of natural-type NAG in water", "assay_type": "physicochemical", "conditions": "water of 25° C.", "text": "In the present invention, as a carrier for the skin care agent, foods such as confectioneries, powdered soups, dairy products and beverages, may, for example, be mentioned. As such foods, specifically, gum, candies, tabletted confectioneries, chocolate, jelly, cookies, snacks, corn potage soup, consomme soup, milk, pudding, yogurt, ice cream, lactic acid beverages, alcohol beverages, vitamin beverages, mineral beverages, coffee beverages, near water, nutrition drinks, and the like, may be mentioned."}, "[2]": {"tested_on": "skin conditions of adult female volunteers", "experiment": "Questionnaire on skin conditions after tablet ingestion", "assay_type": "in vivo, human", "conditions": "NAG 1.2 g per day oral tablets, 60 days", "procedure": "20 adult female volunteers of age ranging from 25 to 45 years old were classified into two groups i.e. a test group and a control group. They were asked to take tablets prepared similarly as in Example 1 as described below at a rate of […], twice a day (NAG ingestion amount per day: 1.2 g) together with water, provided that the tablets for the control group were prepared by using lactose as a placebo instead of NAG. The test period was 60 days, and after the completion of test, they were questioned about skin conditions and the like by questionnaires. No particular restriction was made with respect to diet, makeup and the like during the test period."}, "[3]": {"tested_on": "females having a tendency of xeroderma and rough skin", "experiment": "Dermatologic examination and doctor's questions, double blind long-term ingestion study", "assay_type": "in vivo, human", "conditions": "for Face, Cosmetic dermatitis, average score / Face, Spread of cosmetics, average score / Whole body, Desquamation, average score / Whole body, Erosion, average score / Whole body, Flushing, average score / Whole body, Papula, average score / Whole body, Pruritus, average score / Whole body, Vesicle, average score / Face, Dessication, average score / Face, Flushing, average score / General observation, average score / Whole body, Dessication, average score: NAG 1,000 mg/day oral", "procedure": "(§1) To 22 females usually having a tendency of xeroderma and rough skin (average age: 25.5±10.7), a double blind long-term ingestion study was carried out in the following manners provided that a […] were given to a control group.\n(§2) NAG-containing tablets-administered group (NAG group, n=11): Tablets prepared similarly as in Example 1 as described below (NAG amount: 200 mg/tablet), were ingested at a rate of 5 tablets/day (NAG 1,000 mg/day, as a daily dose).\nPlacebo-administered group (Placebo group, n=11): Tablets prepared similarly provided that lactose was used instead of NAG, were ingested at a rate of 5 tablets/day.\n(§3) The ingestion period was 8 weeks in each group. The inspection was in principle carried out just before the start of ingestion, 4 weeks after the start of ingestion, and just before the completion of ingestion (8 weeks after the start of ingestion).\nIn the observation of whole body, 4 ranks evaluation (0: no symptom, 1: slight, 2: medium, 3: severe) was conducted with respect to pruritus, desiccation, flushing, erosion, desquamation, papula, vesicle and tumefaction. In the observation of face, 4 ranks evaluation was similarly conducted with respect to cosmetic dermatitis, desiccation, flushing and spread of cosmetics. Further, amelioration of general symptom including the observations of the whole body and face, was evaluated as a general observation. These evaluations were conducted by a plurality of doctors designated by Japan Dermatologic Science Society. The results are shown in Table 3 (average value of each score of each group)."}, "[4]": {"tested_on": "moisture content of epidermis", "experiment": "Skin moisture content by Corneometer CM825", "assay_type": "in vivo, human", "conditions": "for Moisture content, Left upper arm / Moisture content, Poll / Moisture content, Below left eye: NAG 1,000 mg/day oral", "procedure": "as §1, §2, §3\nThe moisture content was measured by using Corneometer CM825 (manufactured by Courage+Khazaka Electronic Gmbh). This apparatus measures the moisture content of epidermis by measuring the electrostatic capacity via corneal layer, and is known to be less in error as compared with a conventional impedance method or infrared spectrophotometric method.\n(§4) Measurement sites were 1 cm below the left eye, medial part of left upper arm (3 cm above the elbow), and poll (3 cm below spinous process of neck). With respect to the oil and fat content, since most subjects were scored at 0 at the left upper arm and the poll, only the site below the left eye was measured from the 2nd inspection.\n(§5) In order to keep the environments for the measurements as equal as possible, a room having its internal conditions adjusted to be constant was prepared before the measurements (room temperature: 18 to 20° C., humidity: 45 to 60%), and the subjects were asked to keep in rest in this room for at least 30 minutes. Further, with respect to the makeup at the measurement site, it was in principle prohibited to put on makeup from 60 minutes before the inspection."}, "[5]": {"tested_on": "skin surface acidity", "experiment": "Skin acidity (pH) by PH 900", "assay_type": "in vivo, human", "conditions": "NAG 1,000 mg/day oral", "procedure": "as §1, §2, §3\nThe acidity was measured by using PH 900 (manufactured by Courage+Khazaka Electronic Gmbh). In use of this apparatus, an electrode is contacted to a skin surface through an ion-permeable membrane neighboring to a glass membrane and the acidity can be measured without electrochemical invasion. In this connection, the optimum pH of female's skin is about 5.5.\nas §4, §5"}, "[6]": {"conditions": "after 4 weeks, score 0-3, p < 0.05"}, "[7]": {"conditions": "after 8 weeks, score 0-3, p < 0.05"}}, "note": "Marks after values point to notes of the source that are not given here."}
{"smiles": "CC(=O)N[C@H]1C(O)O[C@H](CO)[C@@H](O)[C@@H]1O", "note": "(stereo partly drawn) [NAG, N-acetylglucosamine]", "values": [{"measurement": "solubility in water", "setting": "[1]", "value": 32, "unit": "% by weight"}, {"measurement": "skin-beautification effect", "setting": "[2]; versus placebo region", "value": "recognized"}, {"measurement": "Fine wrinkles decreased (number of persons)", "setting": "[2]; test region, placebo 1", "value": 5}, {"measurement": "Skin conditions worsened as a whole (number of persons)", "setting": "[2]; test region, placebo 1", "value": 0}, {"measurement": "Feel moistness in skin (number of persons)", "setting": "[2]; test region, placebo 2", "value": 7}, {"measurement": "Feel tension in skin (number of persons)", "setting": "[2]; test region, placebo 2", "value": 6}, {"measurement": "Skin conditions improved as a whole (number of persons)", "setting": "[2]; test region, placebo 2", "value": 8}, {"measurement": "No change (including unidentified) (number of persons)", "setting": "[2]; test region, placebo 5", "value": 2}, {"measurement": "Face, Cosmetic dermatitis, average score", "setting": "[3]; after 4 weeks, score 0-3", "value": 1.00}, {"measurement": "Face, Spread of cosmetics, average score", "setting": "[3]; after 4 weeks, score 0-3", "value": 1.33}, {"measurement": "Whole body, Desquamation, average score", "setting": "[3]; after 4 weeks, score 0-3", "value": 1.33}, {"measurement": "Whole body, Erosion, average score", "setting": "[3]; after 4 weeks, score 0-3", "value": 1.00}, {"measurement": "Whole body, Flushing, average score", "setting": "[3]; after 4 weeks, score 0-3", "value": 0.80}, {"measurement": "Whole body, Papula, average score", "setting": "[3]; after 4 weeks, score 0-3", "value": 1.50}, {"measurement": "Whole body, Pruritus, average score", "setting": "[3]; after 4 weeks, score 0-3", "value": 0.90}, {"measurement": "Whole body, Vesicle, average score", "setting": "[3]; after 4 weeks, score 0-3", "value": 2.00}, {"measurement": "Face, Dessication, average score", "setting": "[3]; after 4 weeks, score 0-3, p < 0.01", "value": "1.18**"}, {"measurement": "Face, Flushing, average score", "setting": "[3]; [6]", "value": "1.10*"}, {"measurement": "General observation, average score", "setting": "[3]; [6]", "value": "1.27*"}, {"measurement": "Whole body, Dessication, average score", "setting": "[3]; [6]", "value": "1.36*"}, {"measurement": "Face, Cosmetic dermatitis, average score", "setting": "[3]; after 8 weeks, score 0-3", "value": 1.33}, {"measurement": "Whole body, Desquamation, average score", "setting": "[3]; after 8 weeks, score 0-3", "value": 1.00}, {"measurement": "Whole body, Erosion, average score", "setting": "[3]; after 8 weeks, score 0-3", "value": 0.00}, {"measurement": "Whole body, Flushing, average score", "setting": "[3]; after 8 weeks, score 0-3", "value": 0.40}, {"measurement": "Whole body, Papula, average score", "setting": "[3]; after 8 weeks, score 0-3", "value": 1.50}, {"measurement": "Whole body, Pruritus, average score", "setting": "[3]; after 8 weeks, score 0-3", "value": 0.60}, {"measurement": "Whole body, Vesicle, average score", "setting": "[3]; after 8 weeks, score 0-3", "value": 2.00}, {"measurement": "Face, Dessication, average score", "setting": "[3]; [7]", "value": "1.00*"}, {"measurement": "Face, Flushing, average score", "setting": "[3]; [7]", "value": "1.10*"}, {"measurement": "Face, Spread of cosmetics, average score", "setting": "[3]; [7]", "value": "0.83*"}, {"measurement": "General observation, average score", "setting": "[3]; [7]", "value": "1.09*"}, {"measurement": "Whole body, Dessication, average score", "setting": "[3]; [7]", "value": "1.00*"}, {"measurement": "Face, Dessication, average score", "setting": "[3]; before ingestion, score 0-3", "value": 2.00}, {"measurement": "Face, Flushing, average score", "setting": "[3]; before ingestion, score 0-3", "value": 1.80}, {"measurement": "Face, Spread of cosmetics, average score", "setting": "[3]; before ingestion, score 0-3", "value": 1.83}, {"measurement": "General observation, average score", "setting": "[3]; before ingestion, score 0-3", "value": 1.82}, {"measurement": "Whole body, Desquamation, average score", "setting": "[3]; before ingestion, score 0-3", "value": 1.33}, {"measurement": "Whole body, Dessication, average score", "setting": "[3]; before ingestion, score 0-3", "value": 2.09}, {"measurement": "Whole body, Erosion, average score", "setting": "[3]; before ingestion, score 0-3", "value": 2.00}, {"measurement": "Whole body, Flushing, average score", "setting": "[3]; before ingestion, score 0-3", "value": 1.40}, {"measurement": "Whole body, Papula, average score", "setting": "[3]; before ingestion, score 0-3", "value": 1.00}, {"measurement": "Whole body, Pruritus, average score", "setting": "[3]; before ingestion, score 0-3", "value": 1.40}, {"measurement": "Whole body, Vesicle, average score", "setting": "[3]; before ingestion, score 0-3", "value": 1.00}, {"measurement": "Face, Cosmetic dermatitis, average score", "setting": "[3]; before ingestion, score 0 no symptom to 3 severe", "value": 1.00}, {"measurement": "symptom of whole body: \"dessication\"", "setting": "[3]; NAG group, 1,000 mg/day oral, 8 weeks, also significant in placebo group", "value": "significant improvements"}, {"measurement": "symptoms of face: \"dessication\", \"flushing\" and \"spread of cosmetics\"", "setting": "[3]; NAG group, 1,000 mg/day oral, 8 weeks, placebo no significance", "value": "significant improvements"}, {"measurement": "general observation", "setting": "[3]; NAG group, 1,000 mg/day oral, 8 weeks, placebo no significant improvement", "value": "significant improvements"}, {"measurement": "Moisture content, Left upper arm", "setting": "[4]; after 4 weeks", "value": "38.7 ± 5.8"}, {"measurement": "Moisture content, Poll", "setting": "[4]; after 4 weeks", "value": "51.9 ± 5.4"}, {"measurement": "Moisture content, Below left eye", "setting": "[4]; after 4 weeks, p < 0.05", "value": "58.8 ± 14.2"}, {"measurement": "Moisture content, Left upper arm", "setting": "[4]; after 8 weeks", "value": "36.2 ± 6.8"}, {"measurement": "Moisture content, Poll", "setting": "[4]; after 8 weeks", "value": "52.1 ± 10.9"}, {"measurement": "Moisture content, Below left eye", "setting": "[4]; after 8 weeks, p < 0.01", "value": "56.2 ± 8.4"}, {"measurement": "Moisture content, Below left eye", "setting": "[4]; before ingestion", "value": "48.0 ± 8.8"}, {"measurement": "Moisture content, Left upper arm", "setting": "[4]; before ingestion", "value": "37.8 ± 7.8"}, {"measurement": "Moisture content, Poll", "setting": "[4]; before ingestion", "value": "51.3 ± 5.6"}, {"measurement": "moisture content at the site below the left eye, change", "setting": "[4]; NAG group, 1,000 mg/day oral, 8 weeks", "value": "significant increase"}, {"measurement": "Acidity (pH), Below left eye", "setting": "[5]; after 4 weeks", "value": "5.7 ± 0.5", "unit": "pH"}, {"measurement": "Acidity (pH), Left upper arm", "setting": "[5]; after 4 weeks", "value": "5.6 ± 0.3", "unit": "pH"}, {"measurement": "Acidity (pH), Poll", "setting": "[5]; after 4 weeks", "value": "5.4 ± 0.3", "unit": "pH"}, {"measurement": "Acidity (pH), Below left eye", "setting": "[5]; after 8 weeks", "value": "5.8 ± 0.4", "unit": "pH"}, {"measurement": "Acidity (pH), Left upper arm", "setting": "[5]; after 8 weeks", "value": "5.7 ± 0.4", "unit": "pH"}, {"measurement": "Acidity (pH), Poll", "setting": "[5]; after 8 weeks", "value": "5.3 ± 0.4", "unit": "pH"}, {"measurement": "Acidity (pH), Left upper arm", "setting": "[5]; before ingestion", "value": "5.5 ± 0.3", "unit": "pH"}, {"measurement": "Acidity (pH), Poll", "setting": "[5]; before ingestion", "value": "5.7 ± 1.1", "unit": "pH"}, {"measurement": "Acidity (pH), Below left eye", "setting": "[5]; before ingestion, optimum pH about 5.5", "value": "6.0 ± 1.0", "unit": "pH"}]}
